Measured values taken from a melting point compilation (Tetko et al.; mined from patent text by program, amines drawn as free bases though some values may be those of a salt).

Row | melting point | SMILES
1 | 162 to 164 °C | CCOC(=O)c1cc(CN2C(=O)C3(COc4cc5c(cc43)OCO5)c3ccccc32)oc1C(F)(F)F (configuration not stated)
2 | 150 to 152 °C | CCC(=O)n1ccc(-c2ccc(C(=O)N3Cc4cccn4Cc4ccccc43)cc2)n1
3 | 110 °C | Cc1ccc(-c2ccc(CN3CCN(c4ccccc4)CC3)o2)cc1C
4 | 283 to 284 °C | Cc1nc(N)c(C#N)c(NCc2cncc(Br)c2)n1
5 | > 260 °C | CC(=O)Nc1nc(N)nc(-c2ccc(-c3ccccc3)cc2)n1
6 | 113 to 115 °C | Cn1ncc2c(c1=O)OCCNC2Cc1ccccc1 (configuration not stated)
7 | 153 to 155 °C | CC(C#N)(CO)NS(=O)(=O)Cc1ccccc1 (configuration not stated)
8 | 120 to 122 °C | N=C(N)NCCSCc1nccs1
9 | 190 to 194 °C | O=C(Nc1ccc(Cl)cc1)C1=C(N2CCCC2)CS(=O)(=O)N(Cc2ccc(Cl)cc2)c2ccccc21
10 | 164 to 165 °C | CCCN(CCC)C(=O)Cc1ccc(O)c2[nH]ncc12
11 | 196 to 198 °C | Cc1cc(O)cc2cc(-c3ccc(O)c(F)c3)oc12
12 | 225 to 228 °C | Cc1nc(N2CCN(Cc3ccc(C(F)(F)F)nc3)C2=O)sc1C(N)=O
13 | 230 to 231 °C | CCON1CCC2(CC1)NC(=O)C(c1c(C)cc(C)cc1C)=C2OC(=O)C(C)(C)C
14 | 164 to 165 °C | CCCCn1c(C(=O)c2cc(C)cc(C=CC#N)c2)c(C(C)C)c(=O)[nH]c1=O
15 | 133 °C | CNC(=O)c1cccc(NC(=O)COc2ccccc2OC)c1
16 | 203 to 205 °C | CCCc1cnc(NC(=O)C2c3ccccc3Oc3ccccc32)o1
17 | 135 to 136 °C | CCCc1nn(-c2ccc(C(F)(F)F)cn2)cc1CCCOc1ccc(CC(=O)O)c(OC)c1
18 | 149 to 153 °C | CC(=O)NNc1nc(C(F)(F)F)nc(-c2ccc(F)cc2)c1-c1ccccc1
19 | 205 to 210 °C | CCn1cc(C2(c3cccc(-c4cncc(Cl)c4)c3)N=C(N)N(C)C2=O)cn1 (configuration not stated)
20 | 196 °C | COCc1ccn2nc(S(=O)(=O)Nc3c(C)cccc3Cl)nc2n1
21 | 131 to 133 °C | CSc1ccc(C(C#N)=NO)cc1SC
22 | 173 to 174 °C | O=C1C(c2ccccc2)=C(c2ccccc2)C(=O)N1c1ccccc1
23 | 157 to 160 °C | CCOC(=O)C1=C(O)c2cc3cc(OC)ccc3n2CC1
24 | > 280 °C | CC1(C)Oc2ccc(S(=O)(=O)c3cccc(O)c3)cc2[C@@H](Nc2ccnc(Cl)n2)[C@]1(C)O

Row | melting point | SMILES
25 | 233 to 235 °C | Cn1nc(Cl)cc(Nc2ccncn2)c1=O
26 | 261 to 263 °C | O=S(=O)(c1ccccc1)c1c[nH]c2ccncc12
27 | 194 to 196 °C | Cc1ccc(-c2c(C(=O)O)n(CCCBr)c(=O)c3ncccc23)cc1
28 | 66 °C | CCOC(=O)c1cnc(N2CCN(Cc3ccccc3)CC2)nc1C(=O)OCC
29 | 84 to 85 °C | CCCc1nn(-c2ccc(C(F)(F)F)cn2)cc1CCCOc1ccc(C(C)(C)C(=O)O)cc1
30 | 135 to 136 °C | CC(=O)c1cccc(C(=O)O)c1O
31 | 262 to 263 °C | COc1cccc(-c2cc3c(Nc4cccc(Cl)c4)ncnc3[nH]2)c1
32 | 204 to 205 °C | O=C([C@@H]1CCCN1S(=O)(=O)c1ccc2ccccc2c1)N1C[C@H](c2ccc(Cl)cc2)Sc2ccc3ccccc3c21
33 | 133 to 134 °C | CC(C)c1ccc(Oc2ccc(C(=O)C=CC(=O)O)cc2)cc1
34 | > 280 °C | Cc1c(F)c(N)c(Cl)c2c1c(=O)c(C(=O)O)cn2-c1cc(N)c(F)cc1F
35 | 82 to 84 °C | CCOC(=O)c1cc2c3n(ccc-2n1)CC(C=O)=N3
36 | 206 to 208 °C | N#Cc1c2c(c3c(c1N1CCCC1)Cc1ccccc1-3)-c1ccccc1C2
37 | 223 to 225 °C | O=Nc1c(-c2ccccc2)nc2ncccn12
38 | 190 to 192 °C | Cc1cn([C@H]2C=C[C@@H](O)C2)c(=O)nc1N (racemic)
39 | 228 °C | O=C(Nc1ccc2ccc(Br)nc2n1)c1ccc(F)cc1
40 | 235 to 237 °C | Nc1nc(CCc2ccccc2)nc2nc(-c3ccco3)nn12
41 | 134 to 135 °C | CC(Nc1ccc(Cl)c(Cl)c1)C(=O)NCC#N (configuration not stated)
42 | 103 °C | CCCCc1nc(S(C)=O)c(C(=O)OCC)n1CC1Oc2ccc(Cl)cc2O1 (configuration not stated)
43 | 86.5 to 87.5 °C | COc1ccc(-c2ccc(C=O)cc2)cc1OC1CCCC1
44 | 103 to 104 °C | C(=C\c1nc(COc2ccc(CCCCCn3cncn3)cc2)co1)/c1ccccc1
45 | 315 °C | CC(C)Oc1nccc2c1C(c1ccccc1C(F)(F)F)c1c(cc[nH]c1=O)N2 (configuration not stated)
46 | 119 to 120 °C | C=C(C)COc1ccc(C(=O)C=Cc2cccs2)c(O)c1
47 | > 295 °C | O=C(O)c1ccc(N2Cc3ccccc3C2=O)cc1
48 | 142 to 143 °C | Cc1ccc(CCOc2ccnc3c(OCCc4ccc(C)cc4)cccc23)cc1

Row | melting point | SMILES
49 | 139 to 141 °C | CCCCCS(=O)(=O)NC(=O)CCc1cc(OCc2ccccc2)nn1Cc1ccc(Cl)cc1Cl
50 | 126 to 127 °C | CCOC(=O)n1c(SC(F)(F)C(F)F)nc(-c2ccccc2)c1-c1ccccc1
51 | 168 to 169 °C | CC1(C(=O)O)c2ccccc2-c2ccccc21
52 | 119 to 121 °C | COc1cc(CCNc2ncnc3c(F)ccc(F)c23)ccc1Oc1ccc(C(F)(F)F)cn1
53 | 96 to 97 °C | CC(=O)C(=NO)C(N)=O
54 | 77 to 78 °C | O=[N+]([O-])c1ccc(OCCc2ccc(CCl)cn2)cc1
55 | 239 to 241 °C | O=C(NC1CC1)c1c(NC(=O)c2cc(C(F)(F)F)nn2-c2ncccc2Cl)ccc2cc[nH]c12
56 | 112 to 115 °C | COc1cc2c(cc1OCc1ccccc1)C(Sc1ccc(Cl)cc1)(C(N)=CC(=O)OC(C)(C)C)C2 (configuration not stated)
57 | 154 °C | FC(F)(F)c1cn2c(c1-c1ccccc1)CCC2
58 | 210 to 212 °C | Cc1c(N2C(=O)C=CC2=O)cccc1N1C(=O)C=CC1=O
59 | 165 to 166 °C | CCc1nc2c(-c3ccc(Cl)cc3Cl)nccn2c1C(C)O (configuration not stated)
60 | 195 to 196 °C | N#Cc1ccc(-c2csc(N3C(=O)OC[C@H]3CF)n2)cc1
61 | 101 to 103 °C | CCN(CC)C(=O)c1ccc(CCCCOCCCCCCN(Cc2ccccc2)CC(O)c2ccc(O)c3[nH]c(=O)ccc23)cc1 (configuration not stated)
62 | 135 to 137 °C | CC(C)Oc1ccc(CCN2CCC3(CC2)CNC(=O)CO3)cc1
63 | 149 to 150 °C | Cc1ccc2c3c(ccc2n1)OC[C@H](CN1CCC(Oc2ccc4c(c2)NC(=O)CO4)CC1)O3
64 | 61 to 66 °C | CCCc1c(OCCCCCOc2c(C(C)=O)ccc(OCCCC(=O)O)c2CCC)ccc(C(C)=O)c1O
65 | 69 to 70 °C | COC(=O)c1cc(OC)c(OS(=O)(=O)C(F)(F)F)cc1[N+](=O)[O-]
66 | 54 °C | COc1cccc(Cc2nc3c(cnn3C(CCCc3ccccc3)C(C)O)c(=O)[nH]2)c1 (configuration not stated)
67 | 105 to 110 °C | CC(C)(C)OC(=O)N[C@@H](Cc1ccc(O)cc1)C(=O)N[C@H](Cc1ccccc1)C(=O)NCC(=O)O
68 | 183 to 184 °C | CCOC1CC(n2cc(C(F)(F)F)c(=O)[nH]c2=O)OC1CO (configuration not stated)
69 | 89 to 91 °C | CCCCCCCC(Oc1ccc(C(C)CC)cc1)C(=O)Nc1c(-c2ccccc2)nc2ccccc2c1C(=O)OC (configuration not stated)
70 | 127 to 128 °C | O=C1COCc2cc(-c3ccccc3)ccc21
71 | 121 to 122 °C | Cc1c(Cl)cc2nc(Cl)c(Cl)nc2c1[N+](=O)[O-]
72 | 91 to 93 °C | Cc1c(Cc2cc(Cl)cc(Cl)c2)c(C(F)(F)F)nn1CCO

Row | melting point | SMILES
73 | 49 to 50 °C | Cc1ccc(CN2CCSC2=O)cc1
74 | 57.5 to 58 °C | COC1CN(c2ccc([N+](=O)[O-])cc2F)C1
75 | 173 to 174 °C | CC(=O)NC1Cc2ccc(C(=O)CCl)cc2C1 (configuration not stated)
76 | 97 to 99 °C | CC(=O)CS(=O)(=O)CCc1ccc2c(c1)OCO2
77 | 168 to 170 °C | CN(C)N=Nc1ccsc1C(N)=O
78 | 152 to 153 °C | Cc1cc(-c2cnn(-c3ccccc3)c2)ccc1OC=C1C=CC=CC1n1nnn(C)c1=O (configuration not stated)
79 | 163 to 164 °C | COC(=O)c1ccc2cc(-c3ccc(OC)cc3)oc2c1
80 | 145 to 146 °C | CC(CF)c1ccc(NC(=O)N(C)C)cc1 (configuration not stated)
81 | > 300 °C | O=C1Nc2ccc(C(F)(F)F)cc2C1c1ncnc2c1cnn2C1CCCCC1 (configuration not stated)
82 | 251 °C | CC(C)(F)Cn1c(N)nc2c(N)nc3ccccc3c21
83 | 172 °C | N#CC(Cc1ccc(-c2ccccc2)cc1)C(=O)N=NO (configuration not stated)
84 | 200 to 202 °C | CCNc1cc(-c2c[nH]c(N)n2)ccn1
85 | 277 to 282 °C | COCC1COc2cc3ncnc(Nc4cccc(Cl)c4)c3cc2O1 (configuration not stated)
86 | 187 to 188 °C | CC(C)(C)Cc1c(CC(C)(C)C(=O)O)n(Cc2ccc(Cl)cc2)c2ccc(OCc3ccc4sccc4n3)cc12
87 | 106 to 107 °C | COC(=O)C1=CCN=C(c2ccccc2F)c2cc(Cl)ccc21
88 | > 300 °C | COc1cc2cc3c(=O)c(C#N)c[nH]c3nc2cc1OC
89 | 206 to 210 °C | Cn1cc(CO)c(=O)c2cccc(F)c21
90 | 118 to 119 °C | CCOC(=O)c1nc(Cl)nc(N)c1OC
91 | 207 to 208 °C | CCn1c(=O)ccc2cnc(Nc3ccc(-c4ccccc4)cc3)nc21
92 | 108 °C | COc1nc(N)c(Cl)cc1C(=O)CCC1CCN(CC(C)(C)O)CC1
93 | 123 to 125 °C | COC(=O)c1cncc(N(C)C(=O)C(C)CSC(C)=O)c1 (configuration not stated)
94 | 131 °C | CCCCc1n[nH]c(=S)n(N)c1=O
95 | 102 to 107 °C | CCCCN(C)CCOc1ccc(-n2c(-c3ccc(O)cc3)c(C)c3cc(O)ccc32)cc1
96 | 237 to 239 °C | CN1CC[C@@H](c2c(O)cc(O)c3c(=O)cc(-c4cccc(F)c4Br)oc23)[C@@H]1CO

Row | SMILES | melting point
97 | O=Cc1ncc2n1-c1ccc(Cl)cc1C(c1ccccc1F)=NC2 | 182 to 183 °C
98 | CCCCCCCCCCCCCCCCCCNP1OCC2(CO1)COP(NCCCCCCCCCCCCCCCCCC)OC2 (configuration not stated) | 67 to 70 °C
99 | C#C[C@]1(OC(C)=O)CC[C@H]2[C@@H]3CC(=C)C4=CC(=O)CC[C@@H]4[C@H]3CC[C@@]21C | 157 °C
100 | COc1cc(CBr)cc(OC)c1 | 70 to 72 °C
101 | Nc1ncc(C(=O)CBr)cc1Cl | 134 °C
102 | CN1CC(C(=O)COC(=O)c2cncc(Br)c2)CC2c3cccc4[nH]cc(c34)CC21 (configuration not stated) | 185 to 187 °C
